Measured values: PubChem BioAssay (NCI)
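Briefly, cells in 96-well plates were exposed to five compound concentrations for 48 h, and endpoints were estimated by linear interpolation. GI50 = concentration required for 50% inhibition of growth. TGI is the concentration that stops growth completely.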

Key:
Assay in all cases: NCI-60 cell line screen, 48 h
SNB-19 CNS = system: SNB-19 CNS
UO-31 renal = system: UO-31 renal
SK-MEL-28 melanoma = system: SK-MEL-28 melanoma
SK-MEL-2 melanoma = system: SK-MEL-2 melanoma
SK-OV-3 ovarian = system: SK-OV-3 ovarian
MCF7 breast = system: MCF7 breast
LOX IMVI melanoma = system: LOX IMVI melanoma
SR leukemia = system: SR leukemia
UACC-62 melanoma = system: UACC-62 melanoma
SK-MEL-5 melanoma = system: SK-MEL-5 melanoma

SMILES	TGI (SNB-19 CNS)	TGI (UO-31 renal)	TGI (SK-MEL-28 melanoma)	TGI (SK-MEL-2 melanoma)	TGI (SK-OV-3 ovarian)	TGI (MCF7 breast)	TGI (LOX IMVI melanoma)	TGI (SR leukemia)	TGI (UACC-62 melanoma)	TGI (SK-MEL-5 melanoma)	GI50 (SNB-19 CNS)	GI50 (UO-31 renal)	GI50 (SK-MEL-28 melanoma)	GI50 (SK-MEL-2 melanoma)	GI50 (SK-OV-3 ovarian)	GI50 (MCF7 breast)	GI50 (LOX IMVI melanoma)	GI50 (SR leukemia)	GI50 (UACC-62 melanoma)	GI50 (SK-MEL-5 melanoma)
O=[N+]([O-])c1ccccc1N=Nc1c(O)[nH]c2ccccc12	> 100 µM	> 52.8 µM	> 100 µM	> 100 µM	> 53.7 µM	> 100 µM	> 53 µM	> 100 µM	> 100 µM	> 86.2 µM	–	–	–	–	–	–	–	–	–	–
CCC[C@H](N[C@@H]1CCc2cc(F)cc(F)c2C1)C(=O)Nc1cn(C(C)(C)CNCC(C)(C)C)cn1	> 94.6 µM	22.1 µM	33.9 µM	35.4 µM	> 100 µM	> 56.7 µM	30.6 µM	> 79 µM	34.1 µM	24.8 µM	26.6 µM	6.33 µM	15.1 µM	16.1 µM	26.3 µM	15.6 µM	15.5 µM	14.2 µM	15.6 µM	12.2 µM
O=C(O)C1C2CC3C(OC(=O)C31)C2Br (configuration not stated)	> 100 µM	> 100 µM	> 100 µM	> 100 µM	> 100 µM	> 100 µM	> 100 µM	26.2 µM	> 100 µM	> 100 µM	–	–	–	–	–	–	–	–	–	–
CC(C)=CCc1c(O)cc(/C=C/c2cc(O)c3c(c2)C[C@@H]2C(C)(C)[C@H](O)[C@H](O)C[C@@]2(C)O3)cc1O	> 10 µM	4.92 µM	> 5.26 µM	–	3.73 µM	0.831 µM	3.02 µM	> 10 µM	0.325 µM	2.32 µM	1.46 µM	< 0.001 µM	1.58 µM	0.0444 µM	0.264 µM	0.00718 µM	0.0021 µM	< 0.001 µM	0.0462 µM	1.03 µM
CCOC(=O)CC1(O)C=CC(=O)C=C1	5.05 µg/mL	4.44 µg/mL	2.89 µg/mL	4.66 µg/mL	5.53 µg/mL	2.59 µg/mL	1.68 µg/mL	1.18 µg/mL	1.7 µg/mL	3.86 µg/mL	1.53 µg/mL	2.41 µg/mL	1.04 µg/mL	2.33 µg/mL	1.71 µg/mL	0.824 µg/mL	0.498 µg/mL	0.348 µg/mL	0.485 µg/mL	1.96 µg/mL
CS(=O)(=O)CCNCc1ccc(-c2ccc3ncnc(Nc4ccc(OCc5cccc(C(F)(F)F)c5)cc4)c3c2)o1	> 25 µM	10.2 µM	8.23 µM	9.96 µM	> 25 µM	> 15 µM	9.32 µM	16.7 µM	9.66 µM	> 13.5 µM	11.3 µM	4.34 µM	4.29 µM	5.46 µM	9.25 µM	6.38 µM	4.53 µM	4.49 µM	5.11 µM	6.05 µM
CC(NS(C)(=O)=O)c1ccccc1 (configuration not stated)	> 100 µM	> 100 µM	> 100 µM	> 100 µM	–	> 100 µM	> 100 µM	> 100 µM	> 100 µM	> 100 µM	–	–	–	–	–	–	–	–	–	–
C#C[C@]1(O)CC[C@H]2[C@@H]3CC=C4c5sc(N=C(N)N)nc5CC[C@]4(C)[C@H]3CC[C@@]21C	2.41 µM	0.931 µM	1.61 µM	2.36 µM	2.33 µM	1.88 µM	1.63 µM	1.98 µM	0.657 µM	1.66 µM	1.11 µM	0.307 µM	0.4 µM	0.787 µM	1.05 µM	0.391 µM	0.443 µM	0.348 µM	0.248 µM	0.628 µM
CN1CCC2(CC1)C(=O)N(N1CCCCCC1)C(=O)N2c1ccccc1	> 100 µM	> 100 µM	> 100 µM	> 100 µM	> 100 µM	> 100 µM	> 100 µM	> 100 µM	> 100 µM	> 100 µM	–	–	–	–	–	–	–	–	–	–
O=C1Nc2ccccc2C1Cc1ccccc1 (configuration not stated)	> 100 µM	> 100 µM	> 100 µM	> 100 µM	> 100 µM	> 100 µM	> 100 µM	> 100 µM	> 100 µM	> 100 µM	–	–	–	–	–	–	–	–	–	–
CC(=O)/C=C/C1=C(c2cc3ccccc3s2)c2ccccc2CC1	> 100 µM	59.4 µM	54.1 µM	42.2 µM	> 100 µM	> 100 µM	67.3 µM	> 100 µM	34.2 µM	35.3 µM	50.7 µM	21 µM	20.9 µM	20 µM	67.9 µM	5.27 µM	20.3 µM	8.59 µM	16.7 µM	16.3 µM
Cn1c(=O)cc2c3c(c(NCCCO)ccc31)C(=O)c1ccccc1-2	> 100 µM	> 100 µM	> 100 µM	> 100 µM	> 100 µM	> 100 µM	20.7 µM	13.4 µM	> 100 µM	> 100 µM	4.46 µM	1.09 µM	38 µM	6.85 µM	9.81 µM	3.46 µM	1.44 µM	0.694 µM	2.45 µM	3.97 µM
CN1C(=O)CNC(=O)[C@H](NC(=O)c2nc3ccccc3cc2O)CSSC[C@H]1C(=O)NCCc1nc2ccccc2cc1O	> 100 µM	46.1 µM	35 µM	8.47 µM	> 100 µM	27.4 µM	6.77 µM	1.96 µM	38.6 µM	12.7 µM	33.5 µM	13.7 µM	8.07 µM	2.57 µM	> 100 µM	6.23 µM	0.442 µM	0.387 µM	7.64 µM	3.05 µM
O=C1c2ccccc2C(=O)N1c1ccc(S(=O)(=O)Nc2ncccn2)cc1	> 100 µM	> 100 µM	> 100 µM	> 100 µM	> 100 µM	> 100 µM	> 100 µM	> 100 µM	> 100 µM	> 100 µM	> 100 µM	> 100 µM	> 100 µM	> 100 µM	> 100 µM	> 100 µM	> 100 µM	> 100 µM	> 100 µM	> 100 µM
COc1cc(CSc2nc3ccc(C)cc3c(=O)n2Cc2ccccc2)cc(OC)c1OC	> 100 µM	> 100 µM	96.8 µM	43.1 µM	17.8 µM	22.8 µM	> 100 µM	11.1 µM	35.7 µM	12.8 µM	5.93 µM	3.05 µM	2.99 µM	4.05 µM	2.86 µM	0.587 µM	4.66 µM	0.372 µM	2.03 µM	1.45 µM
CCCCCCCCCCCCCCCc1cc(O)ccc1N	> 100 µM	9.36 µM	> 100 µM	> 100 µM	> 76.4 µM	> 100 µM	9.41 µM	23.4 µM	> 100 µM	> 100 µM	> 100 µM	0.685 µM	> 67.3 µM	> 100 µM	31.7 µM	23 µM	1.39 µM	2.18 µM	13.2 µM	> 100 µM
O=C(Nc1cc(C(F)(F)F)ccc1F)Nc1n[nH]c2ccccc12	> 100 µM	> 100 µM	> 100 µM	> 100 µM	> 100 µM	> 100 µM	> 100 µM	> 100 µM	> 100 µM	> 100 µM	> 100 µM	> 100 µM	> 100 µM	> 100 µM	> 100 µM	18.2 µM	> 100 µM	55.4 µM	> 100 µM	> 100 µM
COC(=O)c1ccccc1NC(=O)/C(=N\NC(C)(C)C)C(C#N)c1nc(-c2ccc([N+](=O)[O-])cc2)cs1 (configuration not stated)	> 100 µM	> 100 µM	> 100 µM	> 100 µM	> 100 µM	> 100 µM	> 100 µM	> 100 µM	> 100 µM	> 100 µM	–	–	–	–	–	–	–	–	–	–
CN1CCN(c2ccc3nc(-c4cc(C(C)(C)C)c(O)c(C(C)(C)C)c4)[nH]c3c2)CC1	12.4 µM	3.08 µM	3.4 µM	5.49 µM	21.8 µM	4.14 µM	3.41 µM	8.58 µM	3.38 µM	3.17 µM	3.29 µM	1.7 µM	1.91 µM	2.38 µM	8.83 µM	1.8 µM	1.83 µM	2.45 µM	1.87 µM	1.76 µM
O=C1OC(c2ccc(O)c(-c3ccccc3)c2)(c2ccc(O)c(-c3ccccc3)c2)c2c(Cl)c(Cl)c(Cl)c(Cl)c21	> 100 µM	> 100 µM	> 100 µM	> 100 µM	> 100 µM	> 100 µM	> 100 µM	> 100 µM	> 100 µM	> 100 µM	–	–	–	–	–	–	–	–	–	–
CC(ONC(=O)c1cc(C(F)(F)F)cc(C(F)(F)F)c1)C(=O)Nc1ccc(Cl)cc1 (configuration not stated)	> 100 µM	21.5 µM	37.4 µM	15.2 µM	> 85.8 µM	16.5 µM	14 µM	1.16 µM	14.1 µM	7.86 µM	5.64 µM	4.85 µM	5.4 µM	3.65 µM	12.9 µM	3.38 µM	4.02 µM	–	3.98 µM	2.79 µM
